According to the supplement of paper PMC10307832:

Tests used:
Experiment in all cases: relative viability (nuclei count vs DMSO), 5 days (fraction); higher = more cells survive
GSK126 + Navitoclax = compound: CC[C@H](C)N1C=C(C2=C(C=C(C=C21)C3=CN=C(C=C3)N4CCNCC4)C(=O)NCC5=C(C=C(NC5=O)C)C)C [GSK126] + CC1(C)CCC(c2ccc(Cl)cc2)=C(CN2CCN(c3ccc(C(=O)NS(=O)(=O)c4ccc(N[C@H](CCN5CCOCC5)CSc5ccccc5)c(S(=O)(=O)C(F)(F)F)c4)cc3)CC2)C1 [Navitoclax] (partner 0.5 µM)
Outline: (§1)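 Relative viability equals treated-well nuclei counts divided by vehicle-well nuclei counts. Counts came from 4× images of lung cancer cell lines grown in 1536-well plates for 5 days after pin-tool dosing on the day after seeding. Dosing used one drug alone or a fixed anchor-drug dose plus five library-drug doses (not always all listed) in √10 steps, and values are medians of duplicate plates.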

MLN4924 + OSI-027 = compound: NS(=O)(=O)OC[C@@H]1C[C@@H](n2ccc3c(N[C@H]4CCc5ccccc54)ncnc32)C[C@@H]1O [MLN4924] + COc1cccc2cc(-c3nc([C@H]4CC[C@H](C(=O)O)CC4)n4ncnc(N)c34)[nH]c12 [OSI-027] (partner 0.5 µM)
Outline: as §1

Carboplatin + Luminespib = compound: C1CC(C1)(C(=O)O)C(=O)O.[NH2-].[NH2-].[Pt+2] [Carboplatin] + CCNC(=O)c1noc(-c2cc(C(C)C)c(O)cc2O)c1-c1ccc(CN2CCOCC2)cc1 [Luminespib] (partner 0.01 µM)
Outline: as §1

Carboplatin + Lapatinib = compound: C1CC(C1)(C(=O)O)C(=O)O.[NH2-].[NH2-].[Pt+2] [Carboplatin] + CS(=O)(=O)CCNCc1ccc(-c2ccc3ncnc(Nc4ccc(OCc5cccc(F)c5)c(Cl)c4)c3c2)o1 [Lapatinib] (partner 2 µM)
Outline: as §1

| Cell Line | relative viability (GSK126 + Navitoclax; first compound 0.08 µM) | relative viability (GSK126 + Navitoclax; first compound 0.253 µM) | relative viability (GSK126 + Navitoclax; first compound 0.8 µM) | relative viability (GSK126 + Navitoclax; first compound 2.53 µM) | relative viability (GSK126 + Navitoclax; first compound 8 µM) | relative viability (MLN4924 + OSI-027; first compound 0.04 µM) | relative viability (MLN4924 + OSI-027; first compound 0.1265 µM) | relative viability (MLN4924 + OSI-027; first compound 0.4 µM) | relative viability (MLN4924 + OSI-027; first compound 1.265 µM) | relative viability (MLN4924 + OSI-027; first compound 4 µM) | relative viability (Carboplatin + Luminespib; first compound 0.08 µM) | relative viability (Carboplatin + Luminespib; first compound 0.253 µM) | relative viability (Carboplatin + Luminespib; first compound 0.8 µM) | relative viability (Carboplatin + Luminespib; first compound 2.53 µM) | relative viability (Carboplatin + Luminespib; first compound 8 µM) | relative viability (Carboplatin + Lapatinib; first compound 0.08 µM) | relative viability (Carboplatin + Lapatinib; first compound 0.253 µM) | relative viability (Carboplatin + Lapatinib; first compound 0.8 µM) | relative viability (Carboplatin + Lapatinib; first compound 2.53 µM) | relative viability (Carboplatin + Lapatinib; first compound 8 µM) |
| --- | --- | --- | --- | --- | --- | --- | --- | --- | --- | --- | --- | --- | --- | --- | --- | --- | --- | --- | --- | --- |
| NCI-H460 | 1.14 | 1.17 | 1.17 | 1.1 | 1.18 | 0.739 | 0.781 | 0.893 | 0.0922 | 0.0324 | 0.0398 | 0.0303 | 0.0396 | 0.0341 | 0.0233 | 0.977 | 0.87 | 0.957 | 0.779 | 0.336 |
| COR-L23 | 1.17 | 1.01 | 0.834 | 0.95 | 0.968 | 0.718 | 0.602 | 0.555 | 0.199 | 0.119 | 0.617 | 0.678 | 0.568 | 0.254 | 0.163 | 0.946 | 0.919 | 0.67 | 0.728 | 0.419 |
| NCI-H2009 | 1.23 | 1.14 | 1.19 | 1.1 | 1.16 | 0.249 | 0.149 | 0.187 | 0.0664 | 0.0797 | 1.06 | 1.05 | 0.986 | 0.935 | 0.581 | 1.37 | 0.89 | 0.837 | 0.958 | 0.572 |
| PC-3 [JPC-3] | 0.877 | 0.862 | 0.874 | 0.76 | 0.753 | 0.829 | 0.744 | 0.659 | 0.283 | 0.237 | 0.807 | 0.749 | 0.616 | 0.716 | 0.703 | 0.451 | 0.458 | 0.465 | 0.468 | 0.446 |
| NCI-H2085 | 1.16 | 1.12 | 1.19 | 1.09 | 1.19 | 0.852 | 0.746 | 0.635 | 0.512 | 0.307 | 0.454 | 0.419 | 0.494 | 0.488 | 0.377 | 0.8 | 0.897 | 0.787 | 0.748 | 0.815 |
| EKVX | 0.984 | 0.95 | 0.902 | 0.97 | 0.853 | 0.71 | 0.712 | 0.622 | 0.214 | 0.175 | 0.903 | 0.864 |  | 0.695 | 0.727 | 0.21 | 0.2 | 0.217 | 0.191 | 0.218 |
| NCI-H1792 | 0.733 | 0.644 | 0.655 | 0.664 | 0.658 | 0.663 | 0.765 | 0.839 | 0.593 | 0.54 | 0.492 | 0.36 | 0.44 | 0.415 | 0.267 | 1 | 1.02 | 0.941 | 0.817 | 0.8 |
| NCI-H2405 | 0.76 | 0.708 | 0.805 | 0.895 | 0.552 | 0.749 | 0.684 | 0.493 | 0.309 | 0.271 | 0.813 | 0.838 | 0.591 | 0.606 | 0.724 | 1.31 | 1.06 | 1.12 | 1.15 | 0.904 |
| 201T | 1.18 | 1.27 | 1.27 | 1.26 | 1.32 | 0.824 | 0.857 | 0.46 | 0.139 | 0.115 | 1.02 | 1.06 | 1.1 | 0.988 | 1 | 1.06 | 1.08 | 1.11 | 1.08 | 0.99 |
| NCI-H1755 | 1.07 | 0.996 | 0.999 | 0.997 | 0.969 | 0.681 | 0.518 | 0.4 | 0.207 | 0.208 | 0.419 | 0.7 | 0.41 | 0.595 | 0.366 | 1.06 | 1.1 | 1.11 | 1.09 | 0.995 |
| NCI-H647 | 1.14 | 1.05 | 1.07 | 1.11 | 1.15 | 0.598 | 0.472 | 0.475 | 0.0477 | 0.0384 | 0.169 | 0.239 | 0.154 | 0.185 | 0.13 | 1.29 | 1.1 | 1.02 | 0.98 | 0.862 |
| NCI-H1651 | 1.19 | 0.943 | 1.07 | 1.07 | 1.2 | 0.694 | 0.828 | 0.866 | 0.398 | 0.161 | 0.829 | 0.782 | 0.627 | 0.424 | 0.229 | 0.852 | 0.743 | 0.965 | 0.837 | 0.497 |
| NCI-H1437 | 1.14 | 1.11 | 1.04 | 1.03 | 1.03 | 0.845 | 0.914 | 0.828 | 0.305 | 0.174 | 1.14 | 1.14 | 0.994 | 1.03 | 0.97 | 0.869 | 0.832 | 0.838 | 0.887 | 0.641 |
| NCI-H1975 | 1.04 | 1.18 | 0.94 | 0.998 | 0.892 | 0.704 | 0.934 | 1 | 0.618 | 0.261 | 0.227 | 0.227 | 0.17 | 0.18 | 0.113 | 0.877 | 0.993 | 0.838 | 0.826 | 0.884 |
| BEN | 0.0742 | 0.0598 | 0.0517 | 0.0958 | 0.0522 | 0.318 | 0.308 | 0.228 | 0.218 | 0.195 | 0.462 | 0.3 | 0.257 | 0.311 | 0.266 | 0.797 | 0.87 | 0.749 | 0.654 | 0.59 |
| NCI-H2170 | 0.623 | 0.607 | 0.575 | 0.632 | 0.606 | 0.694 | 0.601 | 0.27 | 0.178 | 0.255 | 0.911 | 0.783 | 0.47 | 0.351 | 0.283 | 0.273 | 0.279 | 0.269 | 0.257 | 0.262 |
